Reference: patent US20240156083A1, “CRYOBIOPRINTING FOR TISSUE FABRICATION AND STORAGE” (THE BRIGHAM AND WOMEN'S HOSPITAL, INC., priority 2022, published 2024)
Each block holds one molecule with its values, some of them ahead of it.

Columns and labels:
C2C12 cells [1] = experiment: Live/dead cell viability after 72 h cryopreservation in GelMA with DMSO and saccharides; format: cell-based, mouse; conditions: C2C12 in 5% (w/v) GelMA; for most effective saccharide concentration for cell viability increase: 72 h cryopreservation, normalized to control with same DMSO concentration
Description: A series of cell viability experiments were conducted using different concentrations of DMSO and saccharides to find the optimized configuration of CPAs in GelMA. […] The cell-laden bioink was used to produce samples containing different concentrations of DMSO and saccharides at room temperature (RT). The cast samples were then directly transferred to −80° C. for 24 h, conventionally cryopreserved in liquid nitrogen for 72 h, crosslinked via UV exposure, and underwent live/dead assays. […] By using the fluorescence images, the cell viability ratios of C2C12 cells were determined. […] Cell viability of each group was normalized to the control group with the same DMSO concentration to choose the most functional saccharide and its optimum concentration (FIG. 3, B to D). […] Ninety-six groups of GelMA samples (four DMSO concentrations, four saccharide concentrations, and six types of saccharides) were studied to identify the optimal CPA configuration. C2C12 cells were encapsulated in the GelMA/CPAs precursor. A volume of 50 μL of the cell-laden precursor was directly cast on a freezing plate in aseptic conditions. […] On day 3, the samples were removed from cryogenic storage and directly crosslinked via UV exposure. The samples were washed in PBS to remove any excess CPAs in preparation for subsequent use. Cell viability was quantified within unthawed cell-encapsulated samples to identify the optimal combination of CPAs. Following the crosslinking and washing steps, the hydrogel samples were cultured for a definite period and then stained using calcein-AM and ethidium homodimer-1 (Thermo Fisher Scientific) per the provider's protocol. An inverted Eclipse-Ti fluorescence microscope (Nikon) was employed to image the live and dead cells in green and red channels, respectively. The ratio of live cells to the total captured cells in random regions of the samples was determined through processing the fluorescent images using ImageJ.

[2] = Ice crystal-formation imaging, fractal dimension (FD) analysis; format: physicochemical; conditions: GelMA bioink, 90% of field of view frozen, versus DMSO-free control
Description: One critical factor that affects cell viability during cryopreservation is the formation of ice crystals (Cheng Y, et al., Small 15, 1904290). The spicular ice crystals can damage the cell membrane, resulting in lower cell viability. […] The addition of CPAs noticeably affected the shape of ice crystals. In the control sample (without DMSO), the ice crystals were more spicular and formed faster than the other study groups. Increasing the DMSO concentration led to the formation of fine ice crystals; however, no remarkable improvement in ice-crystallization was observed when the saccharide concentration was increased, as the saccharide merely prevents osmotic damage to the cells. The fractal dimension (FD) theory, in conjunction with an image processing method, was employed to quantitatively compare the smoothness and the growth rate of the ice crystals. The FD value quantifies the geometry's irregularities. In our analysis, ice crystals' boundaries were extracted from the brightfield images and digitized. The FD value for the resulting quasi-circle geometry was then calculated using equation (1) (Chen Y, Math. Probl. Eng 2020, 7528703).
, where P and A stand for the perimeter and the area of the quasi-circle geometry, respectively. FD is an indicator of how the quasi-circle geometry deviates from a circle. […] When 90% of the field of view was frozen, the FD values were recorded and compared. […]

[3] = Splat ice recrystallization-inhibition assay; format: physicochemical; conditions: GelMA, Tp −20° C., 30 min, increasing DMSO concentration
Description: To further confirm the effect of CPAs on inhibiting ice-recrystallization, a modified splat assay was employed. […] Smaller crystal size is an indication of enhanced ice recrystallization-inhibition (Tomczak MM, et al., Biochem. Biophys. Res. Commun 311, 1041-1046).
The splat cooling assay was performed following the previously developed protocols (Georgiou PG, et al., J. Am. Chem. Soc 143, 7449-7461). Briefly, 10 μL of samples with different DMSO concentrations was added between two glass coverslips. The coverslips were placed on the freezing plate (Tp=−20° C.) for 30 min. Images were then obtained using an optical microscope (Nikon) and processed by ImageJ (National Institutes of Health) to determine the ice crystal size in each group.

C2C12 cells [4] = experiment: Live/Dead viability in vertically cryobioprinted GelMA constructs; format: cell-based, mouse; conditions: 7.5% GelMA
Description: The C2C12 myoblast-laden cryobioprinted samples containing DMSO and melezitose were subjected to Live/Dead assays on Days 1, 3, and 7. The 7.5% GelMA bioinks containing different concentrations (5%, 10%, and 15%) of DMSO were initially used to gain understanding on its cryoprotectant effect. The optimum concentration of DMSO was found at 10% for maximizing cell viability in the absence of the saccharide. GelMA bioinks containing different concentrations (4%, 8%, and 12%) of melezitose in the absence of DMSO were separately used for optimizing the melezitose effect. […] Therefore, the GelMA bioink combined with 8% melezitose and 10% DMSO was determined as the optimum formulation for cell-laden vertical cryobioprinting, and used in the following cellular experiments. […]
Cell viability was assessed by staining with calcein-AM at 0.5 μL mL^−1 and ethidium homodimer-1 at 2 μL mL^−1 (Thermo Fisher Scientific). Cell viability imaging was done using an inverted Eclipse-Ti fluorescence microscope (Nikon). Cell viability was quantified by counting live and dead cells using the ImageJ software (National Institutes of Health). After loading the image, we would adjust the threshold to highlight all of the cells that need to be counted, and convert the image to a binary image. The number of live cells was then determined in the image. […]

[5] = cited from earlier work
[6] = previously reported (Tada N, et al.); cited from earlier work

FD value of ice crystals [2]: significantly decreased
average size of the ice crystals [3]: significantly decreased
SMILES: C[S+](C)[O-] [DMSO, Dimethylsulfoxide]
optimum concentration of DMSO (C2C12 cells [1]; for the selected sugar types, versus DMSO-free group): 10 % (v/v)
optimum concentration of DMSO for maximizing cell viability (C2C12 cells [4]; absence of the saccharide): 10%

SMILES: OC[C@H]1O[C@@H](O[C@H]2[C@H](O)[C@@H](O)C(O)O[C@@H]2CO)[C@H](O)[C@@H](O)[C@H]1O (stereo partly drawn) [Lactose, D-lactose]
most effective saccharide concentration for cell viability increase (C2C12 cells [1]): 4 % (w/v)

SMILES: OC[C@H]1O[C@@](CO)(O[C@H]2O[C@H](CO)[C@@H](O)[C@H](O)[C@H]2O)[C@@H](O[C@H]2O[C@H](CO)[C@@H](O)[C@H](O)[C@H]2O)[C@@H]1O [Melezitose, D-(+)-melezitose hydrate]
most effective saccharide concentration for cell viability increase (C2C12 cells [1]): 12 % (w/v)
melezitose concentration leading to highest cell viability (C2C12 cells [4]; absence of DMSO): 8%
Solubility at 20° C. [5]: 781 mg/mL

SMILES: OC[C@H]1O[C@H](OC[C@H]2O[C@H](O[C@]3(CO)O[C@H](CO)[C@@H](O)[C@@H]3O)[C@H](O)[C@@H](O)[C@@H]2O)[C@H](O)[C@@H](O)[C@H]1O [Raffinose, D-(+) raffinose pentahydrate]
most effective saccharide concentration for cell viability increase (C2C12 cells [1]): 4 % (w/v)
concentration effective as CPA [6]: 10-18 % (w/v)
